Experimental data as given in ChEMBL document CHEMBL4190180 (Medchemcomm, 2016).
pIC50: −log10 of the molar value.

Legend:
MCF7 = assay: Antiproliferative activity against human MCF7 cells after 72 hrs by MTT assay; format: functional, cell-based; settings: MCF7, 72 h
T47D = assay: Antiproliferative activity against human T47D cells after 72 hrs by MTT assay; format: functional, cell-based
MDA-MB-231 = assay: Antiproliferative activity against human MDA-MB-231 cells after 72 hrs by MTT assay; format: functional, cell-based; settings: MDA-MB-231, 72 h
MDA-MB-361 = assay: Antiproliferative activity against human MDA-MB-361 cells after 72 hrs by MTT assay; format: functional, cell-based; settings: MDA-MB-361, 72 h
[1] = Antiproliferative activity against mouse L5178 cells after 72 hrs by MTT assay; format: functional, cell-based; settings: L5178, 72 h
[2] = Antiproliferative activity against mouse L5178 cells harboring human ABCB1 after 72 hrs by MTT assay; format: functional, cell-based; settings: L5178, 72 h
[3] = target: T1, ATP-dependent translocase ABCB1 (Homo sapiens, UniProt P08183); assay: Inhibition of human ABCB1 expressed in mouse L5178 cells assessed as rhodamine-123 accumulation by measuring fluorescence activity ratio at 2 uM pretreated for 10 mins followed by rhodamine-123 addition measured after 20 mins by flow cytometric analysis; format: cell-based
T1 sequence (P08183 whole entry): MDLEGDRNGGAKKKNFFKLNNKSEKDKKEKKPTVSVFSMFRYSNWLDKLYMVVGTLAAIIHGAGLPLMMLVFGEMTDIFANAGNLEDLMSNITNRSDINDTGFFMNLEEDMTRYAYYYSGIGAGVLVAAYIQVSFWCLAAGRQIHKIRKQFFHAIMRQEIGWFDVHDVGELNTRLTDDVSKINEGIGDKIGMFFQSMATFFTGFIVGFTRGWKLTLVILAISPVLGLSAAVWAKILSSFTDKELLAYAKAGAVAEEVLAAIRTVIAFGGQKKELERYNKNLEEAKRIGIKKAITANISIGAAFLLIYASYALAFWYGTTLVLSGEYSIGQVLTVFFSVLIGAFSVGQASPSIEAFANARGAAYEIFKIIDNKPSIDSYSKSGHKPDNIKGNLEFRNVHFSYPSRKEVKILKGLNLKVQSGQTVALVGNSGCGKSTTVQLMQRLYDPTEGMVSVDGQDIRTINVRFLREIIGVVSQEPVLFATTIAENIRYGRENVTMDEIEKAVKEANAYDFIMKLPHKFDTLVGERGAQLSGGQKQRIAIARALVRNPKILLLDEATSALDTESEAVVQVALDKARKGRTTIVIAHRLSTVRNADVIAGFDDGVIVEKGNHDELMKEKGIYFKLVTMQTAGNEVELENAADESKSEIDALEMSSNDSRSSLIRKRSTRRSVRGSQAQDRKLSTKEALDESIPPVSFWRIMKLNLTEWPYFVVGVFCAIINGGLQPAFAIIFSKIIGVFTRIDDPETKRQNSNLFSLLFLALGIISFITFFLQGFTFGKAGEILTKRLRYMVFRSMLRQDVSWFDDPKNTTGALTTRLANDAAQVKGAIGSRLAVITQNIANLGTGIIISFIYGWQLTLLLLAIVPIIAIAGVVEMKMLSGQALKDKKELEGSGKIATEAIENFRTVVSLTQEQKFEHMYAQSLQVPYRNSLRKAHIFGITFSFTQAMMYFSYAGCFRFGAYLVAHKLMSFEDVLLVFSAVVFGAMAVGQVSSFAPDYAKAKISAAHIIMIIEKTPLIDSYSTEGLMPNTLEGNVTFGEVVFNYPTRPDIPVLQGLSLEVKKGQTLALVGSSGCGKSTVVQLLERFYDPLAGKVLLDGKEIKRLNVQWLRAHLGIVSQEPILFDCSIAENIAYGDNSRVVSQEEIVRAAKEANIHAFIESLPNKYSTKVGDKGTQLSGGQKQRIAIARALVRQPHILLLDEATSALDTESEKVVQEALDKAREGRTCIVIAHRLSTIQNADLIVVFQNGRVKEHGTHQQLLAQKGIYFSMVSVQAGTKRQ

[4] = target: T1, ATP-dependent translocase ABCB1; assay: Inhibition of human ABCB1 expressed in mouse L5178 cells assessed as rhodamine-123 accumulation by measuring fluorescence activity ratio at 20 uM pretreated for 10 mins followed by rhodamine-123 addition measured after 20 mins by flow cytometric analysis; format: cell-based
[5] = Selectivity ratio of IC50 for human MCF7 cells to IC50 for human T47D cells; format: functional
[6] = target: T1, ATP-dependent translocase ABCB1; assay: Inhibition of human ABCB1 expressed in mouse L5178 cells assessed as potentiation of doxorubicin-induced cytotoxicity by measuring combination index at ED50 in presence of 10.2:1 ratio of doxorubicin to test compound after 48 hrs by MTT assay; format: cell-based
[7] = target: T1, ATP-dependent translocase ABCB1; assay: Inhibition of human ABCB1 expressed in mouse L5178 cells assessed as potentiation of doxorubicin-induced cytotoxicity by measuring combination index at ED50 in presence of 20.4:1 ratio of doxorubicin to test compound after 48 hrs by MTT assay; format: cell-based
[8] = target: T1, ATP-dependent translocase ABCB1; assay: Inhibition of human ABCB1 expressed in mouse L5178 cells assessed as potentiation of doxorubicin-induced cytotoxicity by measuring combination index at ED50 in presence of 81.5:1 ratio of doxorubicin to test compound after 48 hrs by MTT assay; format: cell-based
[9] = Potentiation of doxorubicin-induced cytotoxicity in mouse L5178 cells assessed as combination index at ED50 in presence of 81.5:1 ratio of doxorubicin to test compound after 48 hrs by MTT assay; format: functional
[10] = Potentiation of doxorubicin-induced cytotoxicity in mouse L5178 cells assessed as combination index at ED50 in presence of 163:1 ratio of doxorubicin to test compound after 48 hrs by MTT assay; format: functional
[11] = Potentiation of doxorubicin-induced cytotoxicity in mouse L5178 cells assessed as combination index at ED50 in presence of 326:1 ratio of doxorubicin to test compound after 48 hrs by MTT assay; format: functional
[12] = target: T1, ATP-dependent translocase ABCB1; assay: Inhibition of human ABCB1 expressed in mouse L5178 cells assessed as potentiation of doxorubicin-induced cytotoxicity by measuring combination index at ED75 in presence of 10.2:1 ratio of doxorubicin to test compound after 48 hrs by MTT assay; format: cell-based
[13] = target: T1, ATP-dependent translocase ABCB1; assay: Inhibition of human ABCB1 expressed in mouse L5178 cells assessed as potentiation of doxorubicin-induced cytotoxicity by measuring combination index at ED75 in presence of 20.4:1 ratio of doxorubicin to test compound after 48 hrs by MTT assay; format: cell-based
[14] = target: T1, ATP-dependent translocase ABCB1; assay: Inhibition of human ABCB1 expressed in mouse L5178 cells assessed as potentiation of doxorubicin-induced cytotoxicity by measuring combination index at ED75 in presence of 81.5:1 ratio of doxorubicin to test compound after 48 hrs by MTT assay; format: cell-based
[15] = Potentiation of doxorubicin-induced cytotoxicity in mouse L5178 cells assessed as combination index at ED75 in presence of 81.5:1 ratio of doxorubicin to test compound after 48 hrs by MTT assay; format: functional
[16] = Potentiation of doxorubicin-induced cytotoxicity in mouse L5178 cells assessed as combination index at ED75 in presence of 163:1 ratio of doxorubicin to test compound after 48 hrs by MTT assay; format: functional
[17] = Potentiation of doxorubicin-induced cytotoxicity in mouse L5178 cells assessed as combination index at ED75 in presence of 326:1 ratio of doxorubicin to test compound after 48 hrs by MTT assay; format: functional
[18] = target: T1, ATP-dependent translocase ABCB1; assay: Inhibition of human ABCB1 expressed in mouse L5178 cells assessed as potentiation of doxorubicin-induced cytotoxicity by measuring combination index at ED90 in presence of 10.2:1 ratio of doxorubicin to test compound after 48 hrs by MTT assay; format: cell-based
[19] = target: T1, ATP-dependent translocase ABCB1; assay: Inhibition of human ABCB1 expressed in mouse L5178 cells assessed as potentiation of doxorubicin-induced cytotoxicity by measuring combination index at ED90 in presence of 20.4:1 ratio of doxorubicin to test compound after 48 hrs by MTT assay; format: cell-based
[20] = target: T1, ATP-dependent translocase ABCB1; assay: Inhibition of human ABCB1 expressed in mouse L5178 cells assessed as potentiation of doxorubicin-induced cytotoxicity by measuring combination index at ED90 in presence of 81.5:1 ratio of doxorubicin to test compound after 48 hrs by MTT assay; format: cell-based
[21] = Potentiation of doxorubicin-induced cytotoxicity in mouse L5178 cells assessed as combination index at ED90 in presence of 81.5:1 ratio of doxorubicin to test compound after 48 hrs by MTT assay; format: functional
[22] = Potentiation of doxorubicin-induced cytotoxicity in mouse L5178 cells assessed as combination index at ED90 in presence of 163:1 ratio of doxorubicin to test compound after 48 hrs by MTT assay; format: functional
[23] = Potentiation of doxorubicin-induced cytotoxicity in mouse L5178 cells assessed as combination index at ED90 in presence of 326:1 ratio of doxorubicin to test compound after 48 hrs by MTT assay; format: functional
SH-SY5Y = assay: Antiproliferative activity against human SH-SY5Y cells after 48 hrs by MTT assay

| SMILES | pIC50 (MCF7) | pIC50 (T47D) | pIC50 (MDA-MB-231) | pIC50 (MDA-MB-361) | pIC50 [1] | pIC50 [2] | Ratio [3] | Ratio [4] | CI [6] | CI [7] | CI [8] | CI [9] | CI [10] | CI [11] | CI [12] | CI [13] | CI [14] | CI [15] | CI [16] | pIC50 (SH-SY5Y) | also measured |
| --- | --- | --- | --- | --- | --- | --- | --- | --- | --- | --- | --- | --- | --- | --- | --- | --- | --- | --- | --- | --- | --- |
| CC(C)(F)CC[C@@H]1OC(C)(C)O[C@]1(C)[C@H]1CC=C2C3=CC(=O)[C@@H]4C[C@H]5OC(C)(C)O[C@H]5C[C@]4(C)[C@H]3CC[C@@]21C | 4.36 | 4.76 | 4.30 | 4.93 | 4.85 | 4.76 | 31.15 | 109.37 | 0.56 | 0.48 | 0.78 | 0.73 | 0.8 | 0.79 | 0.34 | 0.36 | 0.73 | 0.8 | 0.87 | 4.73 | Ratio IC50 [5]: 3; CI [17]: 0.84; CI [18]: 0.22; CI [19]: 0.28; CI [20]: 0.69; CI [21]: 0.89; CI [22]: 0.95; CI [23]: 0.9 |
| CC(C)(O)CC[C@@H]1OC(C)(C)O[C@]1(C)[C@H]1CC=C2C3=CC(=O)[C@@H]4C[C@H]5OC(C)(C)O[C@H]5C[C@]4(C)[C@H]3CC[C@@]21C | 4.52 | 4.96 | 4.41 | 4.86 | 4.84 | 4.71 | 1.28 | 57.36 | 0.55 | 0.54 | 1.09 | 0.99 | 0.93 | 0.9 | 0.45 | 0.44 | 0.87 | 0.89 | 0.89 | 4.68 | Ratio IC50 [5]: 3; CI [17]: 0.81; CI [18]: 0.39; CI [19]: 0.37; CI [20]: 0.69; CI [21]: 0.82; CI [22]: 0.86; CI [23]: 0.73 |
| CC(C)(O)CC[C@@H]1OC(C)(C)O[C@]1(C)[C@H]1CC[C@@]2(O)C3=CC(=O)[C@@H]4C[C@H]5OC(C)(C)O[C@H]5C[C@]4(C)[C@H]3CC[C@]12C | 4.12 | 4.07 | 3.97 | 4.16 | 4.08 | 3.97 | 3.33 | 11.28 | 0.31 | 0.27 | 0.39 | 0.74 | 0.67 | 0.61 | 0.18 | 0.14 | 0.22 | 0.71 | 0.55 | 3.90 | CI [17]: 0.55; CI [18]: 0.11; CI [19]: 0.07; CI [20]: 0.12; CI [21]: 0.68; CI [22]: 0.46; CI [23]: 0.51 |
| CC(C)(F)CC[C@@H]1OC(C)(C)O[C@]1(C)[C@H]1CC[C@@]2(O)C3=CC(=O)[C@@H]4C[C@H]5OC(C)(C)O[C@H]5C[C@]4(C)[C@H]3CC[C@]12C | 4.20 | 4.15 | 4.31 | 4.51 | 4.32 | 4.30 | 1.59 | 38.62 | 0.19 | 0.19 | 0.35 | 0.8 | 0.85 | 1.04 | 0.17 | 0.19 | 0.33 | 0.66 | 0.76 | 4.15 | CI [17]: 0.96; CI [18]: 0.16; CI [19]: 0.19; CI [20]: 0.33; CI [21]: 0.56; CI [22]: 0.71; CI [23]: 0.91 |
| CC(C)(F)CC[C@@H]1OC(C)(C)O[C@]1(C)[C@H]1CC[C@@]2(F)C3=CC(=O)[C@@H]4C[C@H]5OC(C)(C)O[C@H]5C[C@]4(C)[C@H]3CC[C@]12C | 3.89 | 4.31 | 4.01 | 4.27 | 4.05 | 4.08 | 11.02 | 89.78 | 0.23 | 0.21 | 0.24 | 0.7 | 0.6 | 0.72 | 0.11 | 0.12 | 0.16 | 0.42 | 0.44 | 3.90 | Ratio IC50 [5]: 3; CI [17]: 0.59; CI [18]: 0.06; CI [19]: 0.07; CI [20]: 0.11; CI [21]: 0.27; CI [22]: 0.34; CI [23]: 0.52 |
| COc1cccc2c1C(=O)c1c(O)c3c(c(O)c1C2=O)C[C@@](O)(C(=O)CO)C[C@@H]3O[C@H]1C[C@H](N)[C@H](O)[C@H](C)O1 [DOXORUBICIN] |  |  |  |  | 6.64 | 5.45 |  |  |  |  |  |  |  |  |  |  |  |  |  | 6.85 |  |
